Results reported in patent US9309242B2, “Substituted pyrido[2,3-b]pyrazines as FGFR kinase inhibitors” (priority 2011, dated 2016).
Structures can show the parent of a compound that is named as a salt. Where two headings read alike, the source gives them in different places.

Experiments:
[1] = biological target: FGFR4 (h) (Homo sapiens, UniProt P22455); experiment: FGFR4 (enzymatic assay), TR-FRET; format: biochemical; conditions: FGFR 4 pIC50, enzymatic assay
[2] = biological target: T1, Ba/F3-FGFR1-transfected cells (Homo sapiens, UniProt P11362); experiment: Ba/F3-FGFR1 (minus IL3) cellular proliferation assay, Alamar Blue; format: cell-based
T1 construct: BAF3-FGFR1 (MIN IL3) pIC50; other: minus IL3
Outline: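 Viability of transfected Ba/F3-FGFR1 cells (20000 per well, RPMI-1640 with 10% FBS and 2 mM L-glutamine) was scored by resazurin-based Alamar Blue reduction over 4 h, after 24 h treatment with compound at 37 °C under 5% CO2.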

[3] = system: Ba/F3-FGFR3-transfected cells; experiment: Ba/F3-FGFR3 (plus IL3) cellular proliferation assay, counterscreen with 10 ng/ml murine IL3; format: cell-based; conditions: for IC50: read-out: BAF3-FGFR3 (PLUS IL3) pIC50 (converted); for BAF3-FGFR3 (PLUS IL3) pIC50: plus IL3 (10 ng/ml murine IL3, counterscreen)
Outline: (§1)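 With or without 10 ng/ml murine IL3, FGFR3-dependent Ba/F3 cells were treated 24 h with compound, then viability was gauged by Alamar Blue fluorescence after 4 h (ex 540/em 590 nm).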

[4] = biological target: FGFR1 (h) (Homo sapiens, UniProt P11362); experiment: FGFR1 (enzymatic assay), TR-FRET; format: biochemical; conditions: read-out: FGFR 1 pIC50 (converted)
[5] = biological target: T2, Ba/F3-KDR-transfected cells (Homo sapiens, UniProt P35968); experiment: Ba/F3-KDR (minus IL3) cellular proliferation assay, Alamar Blue; format: cell-based
T2 construct: BAF3-KDR (MIN IL3) pIC50; other: minus IL3
Outline: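 Compound in DMSO was dispensed first, then transfected cells in serum-containing RPMI-1640 were added. After a 24 h incubation, viability was gauged by resazurin reduction over 4 h, measured as fluorescence.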

[6] = biological target: FGFR2 (h) (Homo sapiens, UniProt P21802); experiment: FGFR2 (enzymatic assay), TR-FRET; format: biochemical; conditions: enzymatic assay, read-out: FGFR 2 pIC50 (converted)
Outline: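 At low ATP (0.4 μM), enzyme activity of human FGFR2 (150 ng/ml) toward biotinylated Flt3 substrate (500 nM) was followed with test compound present. Reactions ran in 50 mM HEPES pH 7.5, 6 mM MnCl2, 1 mM DTT, 0.1 mM Na3VO4, 0.01% Triton-X-100, 1% DMSO.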

[7] = system: Ba/F3-KDR-transfected cells; experiment: Ba/F3-KDR (plus IL3) cellular proliferation assay, counterscreen with 10 ng/ml murine IL3; format: cell-based; conditions: for IC50: read-out: BAF3-KDR (PLUS IL3) pIC50 (converted); for BAF3-KDR (PLUS IL3) pIC50: plus IL3 (10 ng/ml murine IL3, counterscreen)
Procedure: Ba/F3-KDR (Minus IL3 or Plus IL3) (Cellular Proliferation Assay)
In a 384 well plate, 100 n1 of compound dilution in DMSO was sprayed before adding 50 μl cell culture medium (phenol red free RPMI-1640, 10% FBS, 2 mM L-Glutamine and 50 μg/ml Gentamycin) containing 20000 cells per well of Ba/F3-KDR-transfected cells. Cells were put in an incubator at 37° C. and 5% CO2. After 24 hours, 10 μl of Alamar Blue solution (0.5 mM K3Fe(CN)6, 0.5 mM K4Fe(CN)6, 0.15 mM Resazurin and 100 mM Phosphate Buffer) was added to the wells, incubated for 4 hours at 37° C. and 5% CO2 before RFU's (Relative Fluorescence Units) (ex. 540 nm., em. 590 nm.) were measured in a fluororescence plate reader.
As a counterscreen the same experiment was performed in the presence of 10 ng/ml murine IL3.

[8] = biological target: T3, Ba/F3-FGFR3-transfected cells (Homo sapiens, UniProt P22607); experiment: Ba/F3-FGFR3 (minus IL3) cellular proliferation assay, Alamar Blue; format: cell-based
T3 construct: BAF3-FGFR3 (MIN IL3) pIC50; other: minus IL3
Outline: as §1

[9] = biological target: FGFR3 (h) (Homo sapiens, UniProt P22607); experiment: FGFR3 (enzymatic assay), TR-FRET; format: biochemical; conditions: read-out: FGFR 3 pIC50 (converted)
From the text: Time-Resolved Fluorescence Resonance Energy Transfer (TR-FRET) signal (ex340 nm.

[10] = system: Ba/F3-FGFR1-transfected cells; experiment: Ba/F3-FGFR1 (plus IL3) cellular proliferation assay, counterscreen with 10 ng/ml murine IL3; format: cell-based; conditions: for IC50: read-out: BAF3-FGFR1 (PLUS IL3) pIC50 (converted); for BAF3-FGFR1 (PLUS IL3) pIC50: plus IL3 (10 ng/ml murine IL3, counterscreen)
Outline: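 Proliferation read-out: resazurin-based Alamar Blue fluorescence (540/590 nm) after 4 h, following 24 h compound treatment of 20000 Ba/F3-FGFR1 cells per well in 10% FBS RPMI at 37° C. IL3 counterscreen used the same protocol plus 10 ng/ml murine IL3.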

[11] = biological target: KDR (h) (Homo sapiens, UniProt P35968); experiment: KDR (VEGFR2) (enzymatic assay), TR-FRET; format: biochemical; conditions: read-out: VEGFR 2 (KDR) pIC50 (converted)
Outline: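 Phosphorylation of biotinylated Flt3 peptide (500 nM) by 150 ng/ml enzyme was measured at 3 μM ATP in Mn2+-containing HEPES buffer, pH 7.5, over 120 min at room temperature. Detection used Eu-anti-P-Tyr and SA-XL-665 TR-FRET.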

[12] = biological target: Ba/F3-FGFR4-transfected cells (Homo sapiens, UniProt P22455); experiment: Ba/F3-FGFR4 cellular proliferation assay, Alamar Blue; format: cell-based
Outline: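 Step one: compound dilutions in DMSO are sprayed into wells. Step two: transfected Ba/F3-FGFR4 cells are added at 20000 per well and incubated 24 hours at 37° C. Step three: Alamar Blue is added for 4 hours and relative fluorescence is measured.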

[13] = average values if tested multiple times

T2 sequence (P35968 whole entry, change not shown): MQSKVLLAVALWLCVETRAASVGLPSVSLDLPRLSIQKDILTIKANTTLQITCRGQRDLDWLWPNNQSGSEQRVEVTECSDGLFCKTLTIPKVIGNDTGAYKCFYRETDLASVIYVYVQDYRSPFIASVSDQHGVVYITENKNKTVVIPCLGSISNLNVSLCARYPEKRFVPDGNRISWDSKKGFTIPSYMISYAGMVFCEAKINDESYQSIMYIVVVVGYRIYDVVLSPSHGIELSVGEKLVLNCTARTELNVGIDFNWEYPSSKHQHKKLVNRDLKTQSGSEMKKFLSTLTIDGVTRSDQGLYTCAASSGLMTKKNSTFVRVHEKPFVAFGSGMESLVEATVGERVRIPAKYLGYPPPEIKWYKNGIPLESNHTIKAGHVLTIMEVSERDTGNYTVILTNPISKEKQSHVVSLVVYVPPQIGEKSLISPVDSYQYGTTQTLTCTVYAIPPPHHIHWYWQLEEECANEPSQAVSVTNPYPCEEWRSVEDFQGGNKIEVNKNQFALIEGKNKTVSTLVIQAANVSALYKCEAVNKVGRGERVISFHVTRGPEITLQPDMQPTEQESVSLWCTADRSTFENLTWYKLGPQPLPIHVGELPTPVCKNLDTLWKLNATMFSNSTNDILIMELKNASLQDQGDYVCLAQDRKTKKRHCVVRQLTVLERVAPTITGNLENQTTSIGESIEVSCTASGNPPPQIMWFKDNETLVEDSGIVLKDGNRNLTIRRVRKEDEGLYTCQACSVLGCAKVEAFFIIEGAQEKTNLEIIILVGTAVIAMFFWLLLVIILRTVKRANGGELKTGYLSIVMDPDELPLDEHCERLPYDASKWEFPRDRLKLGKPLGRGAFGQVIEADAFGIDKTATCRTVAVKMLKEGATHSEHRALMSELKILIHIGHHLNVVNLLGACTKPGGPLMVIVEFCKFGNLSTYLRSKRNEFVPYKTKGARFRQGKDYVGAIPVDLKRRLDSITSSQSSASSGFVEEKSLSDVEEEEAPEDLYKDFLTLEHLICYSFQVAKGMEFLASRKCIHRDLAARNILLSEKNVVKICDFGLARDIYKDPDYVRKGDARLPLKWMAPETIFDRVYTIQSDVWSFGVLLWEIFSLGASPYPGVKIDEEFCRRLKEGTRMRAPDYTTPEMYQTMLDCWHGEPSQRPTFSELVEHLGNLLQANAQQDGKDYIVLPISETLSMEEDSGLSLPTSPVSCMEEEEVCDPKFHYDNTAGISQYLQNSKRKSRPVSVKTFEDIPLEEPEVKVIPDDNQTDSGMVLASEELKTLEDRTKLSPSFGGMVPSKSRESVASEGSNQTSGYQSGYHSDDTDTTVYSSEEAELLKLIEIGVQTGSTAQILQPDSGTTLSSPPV
Sequence of FGFR3 (h) (P22607 23-806): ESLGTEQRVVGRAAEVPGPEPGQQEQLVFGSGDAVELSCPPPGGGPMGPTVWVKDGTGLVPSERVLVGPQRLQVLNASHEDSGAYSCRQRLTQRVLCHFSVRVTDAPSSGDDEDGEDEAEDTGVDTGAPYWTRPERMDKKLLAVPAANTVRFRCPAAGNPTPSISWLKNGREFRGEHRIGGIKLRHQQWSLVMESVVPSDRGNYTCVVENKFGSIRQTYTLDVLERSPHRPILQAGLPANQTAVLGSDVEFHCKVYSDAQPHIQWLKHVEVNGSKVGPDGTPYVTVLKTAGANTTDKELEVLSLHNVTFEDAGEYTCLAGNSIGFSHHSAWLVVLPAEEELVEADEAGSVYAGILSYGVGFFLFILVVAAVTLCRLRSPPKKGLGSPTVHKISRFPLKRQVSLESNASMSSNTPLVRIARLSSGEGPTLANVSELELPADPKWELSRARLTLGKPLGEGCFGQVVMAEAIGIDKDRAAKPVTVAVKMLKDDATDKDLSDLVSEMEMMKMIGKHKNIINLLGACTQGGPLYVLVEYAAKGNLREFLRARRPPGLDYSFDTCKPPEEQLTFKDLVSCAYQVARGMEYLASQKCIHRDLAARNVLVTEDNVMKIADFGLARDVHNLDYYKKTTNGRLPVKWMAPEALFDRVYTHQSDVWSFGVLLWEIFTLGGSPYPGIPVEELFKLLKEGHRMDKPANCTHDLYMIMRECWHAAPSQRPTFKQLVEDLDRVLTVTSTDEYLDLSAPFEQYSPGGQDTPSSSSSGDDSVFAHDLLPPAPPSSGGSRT
Sequence of KDR (h) (P35968 20-1356): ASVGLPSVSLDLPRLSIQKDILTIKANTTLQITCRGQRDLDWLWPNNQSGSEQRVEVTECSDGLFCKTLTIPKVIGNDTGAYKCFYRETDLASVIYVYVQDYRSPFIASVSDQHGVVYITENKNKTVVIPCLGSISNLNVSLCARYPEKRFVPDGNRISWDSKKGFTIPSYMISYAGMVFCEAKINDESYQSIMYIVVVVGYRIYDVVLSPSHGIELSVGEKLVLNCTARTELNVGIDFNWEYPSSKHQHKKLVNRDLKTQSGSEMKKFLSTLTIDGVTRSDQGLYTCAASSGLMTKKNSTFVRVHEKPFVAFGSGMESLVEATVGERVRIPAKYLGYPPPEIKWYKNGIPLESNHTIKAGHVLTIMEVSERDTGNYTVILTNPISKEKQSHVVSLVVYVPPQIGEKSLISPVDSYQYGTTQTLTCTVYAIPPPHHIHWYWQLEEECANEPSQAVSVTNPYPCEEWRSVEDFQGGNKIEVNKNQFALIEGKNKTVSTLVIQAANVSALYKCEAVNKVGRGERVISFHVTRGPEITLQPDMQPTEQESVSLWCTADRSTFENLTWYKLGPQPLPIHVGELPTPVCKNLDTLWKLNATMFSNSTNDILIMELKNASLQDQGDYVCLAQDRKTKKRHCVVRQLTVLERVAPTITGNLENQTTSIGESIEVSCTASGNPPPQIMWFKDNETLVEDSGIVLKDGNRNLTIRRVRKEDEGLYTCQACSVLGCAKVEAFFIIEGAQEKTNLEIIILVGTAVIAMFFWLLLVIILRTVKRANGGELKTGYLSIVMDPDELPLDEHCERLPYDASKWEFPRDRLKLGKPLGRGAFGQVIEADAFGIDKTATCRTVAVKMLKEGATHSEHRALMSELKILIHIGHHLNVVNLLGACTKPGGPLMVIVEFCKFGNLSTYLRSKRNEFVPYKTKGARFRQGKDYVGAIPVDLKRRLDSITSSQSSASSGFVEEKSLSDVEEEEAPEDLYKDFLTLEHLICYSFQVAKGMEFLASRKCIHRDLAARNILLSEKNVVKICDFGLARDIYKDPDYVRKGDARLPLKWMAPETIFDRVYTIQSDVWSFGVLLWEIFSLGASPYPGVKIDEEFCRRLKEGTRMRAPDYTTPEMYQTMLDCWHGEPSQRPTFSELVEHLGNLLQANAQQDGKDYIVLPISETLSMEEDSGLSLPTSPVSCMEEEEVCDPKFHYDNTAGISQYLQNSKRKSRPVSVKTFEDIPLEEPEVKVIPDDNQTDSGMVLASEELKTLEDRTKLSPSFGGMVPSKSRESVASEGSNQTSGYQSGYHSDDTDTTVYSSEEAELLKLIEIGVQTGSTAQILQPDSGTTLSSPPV
Sequence of FGFR2 (h) (P21802 22-821): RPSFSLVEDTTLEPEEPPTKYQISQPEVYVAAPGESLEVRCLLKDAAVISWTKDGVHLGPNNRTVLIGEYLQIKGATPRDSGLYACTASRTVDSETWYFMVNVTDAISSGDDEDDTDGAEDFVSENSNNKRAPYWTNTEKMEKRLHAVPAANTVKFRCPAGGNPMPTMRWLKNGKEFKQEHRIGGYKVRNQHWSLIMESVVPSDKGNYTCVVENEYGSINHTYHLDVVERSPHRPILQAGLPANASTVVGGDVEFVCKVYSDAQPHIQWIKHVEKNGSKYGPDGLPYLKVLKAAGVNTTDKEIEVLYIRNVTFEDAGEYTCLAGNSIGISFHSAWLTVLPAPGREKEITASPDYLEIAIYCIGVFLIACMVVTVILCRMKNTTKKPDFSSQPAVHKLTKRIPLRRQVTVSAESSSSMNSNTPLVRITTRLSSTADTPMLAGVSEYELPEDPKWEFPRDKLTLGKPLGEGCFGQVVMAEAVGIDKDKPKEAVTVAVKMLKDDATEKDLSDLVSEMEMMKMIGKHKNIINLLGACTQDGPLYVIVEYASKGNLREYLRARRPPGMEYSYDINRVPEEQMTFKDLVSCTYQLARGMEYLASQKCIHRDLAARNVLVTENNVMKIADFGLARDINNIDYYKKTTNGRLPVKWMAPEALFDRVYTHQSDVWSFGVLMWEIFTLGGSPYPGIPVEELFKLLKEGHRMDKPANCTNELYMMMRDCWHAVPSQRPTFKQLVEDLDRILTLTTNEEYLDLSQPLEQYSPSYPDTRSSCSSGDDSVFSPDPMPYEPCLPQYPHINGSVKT
Sequence of FGFR4 (h) (P22455 22-802): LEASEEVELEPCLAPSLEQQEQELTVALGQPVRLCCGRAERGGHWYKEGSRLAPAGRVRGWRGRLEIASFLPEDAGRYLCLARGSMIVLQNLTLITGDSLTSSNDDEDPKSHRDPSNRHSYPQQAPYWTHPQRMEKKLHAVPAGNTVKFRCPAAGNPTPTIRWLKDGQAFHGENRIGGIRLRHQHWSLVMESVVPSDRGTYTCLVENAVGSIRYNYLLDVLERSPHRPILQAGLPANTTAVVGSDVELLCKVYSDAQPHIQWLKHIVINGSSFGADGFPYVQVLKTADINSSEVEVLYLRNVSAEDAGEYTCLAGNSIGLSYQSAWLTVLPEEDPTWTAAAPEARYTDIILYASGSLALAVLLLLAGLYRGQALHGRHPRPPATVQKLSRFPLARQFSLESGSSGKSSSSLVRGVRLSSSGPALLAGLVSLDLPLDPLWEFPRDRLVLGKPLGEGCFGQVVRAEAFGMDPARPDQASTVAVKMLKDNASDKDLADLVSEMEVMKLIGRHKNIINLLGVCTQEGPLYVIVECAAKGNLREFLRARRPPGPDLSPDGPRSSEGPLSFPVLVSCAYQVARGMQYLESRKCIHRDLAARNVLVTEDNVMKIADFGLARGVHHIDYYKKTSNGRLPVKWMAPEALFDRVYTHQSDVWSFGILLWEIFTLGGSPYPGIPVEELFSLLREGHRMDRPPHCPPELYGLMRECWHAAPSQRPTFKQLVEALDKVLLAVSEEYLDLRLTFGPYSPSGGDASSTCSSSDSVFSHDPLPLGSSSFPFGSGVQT

SMILES	IC50 [1, 13] [nM]	BAF3-FGFR1 (MIN IL3) pIC50 [2]	IC50 [3] [nM]	IC50 [4, 13] [nM]	BAF3-KDR (MIN IL3) pIC50 [5]	IC50 [6, 13] [nM]	IC50 [7] [nM]	BAF3-FGFR3 (MIN IL3) pIC50 [8]	IC50 [9, 13] [nM]	IC50 [10] [nM]	IC50 [11, 13] [nM]	BAF3-FGFR4 pIC50 [12]	IC50 [1] [nM]	IC50 [4] [nM]	IC50 [6] [nM]	IC50 [9] [nM]	IC50 [11] [nM]	BAF3-FGFR3 (PLUS IL3) pIC50 [3]	BAF3-KDR (PLUS IL3) pIC50 [7]	BAF3-FGFR1 (PLUS IL3) pIC50 [10]
COc1cc(OC)c(F)c(N(Cc2nc3ccccc3[nH]2)c2ccc3ncc(-c4cnn(C)c4)nc3n2)c1 [Compound 80]	1.55	7.76	> 10000	1.35	5.79	2.63	> 10000	8.08	1.82	> 10000	10.2	7.36	–	–	–	–	–	–	–	–
COc1cc(/N=c2\ccc3ncc(-c4cnn(C)c4)nc3n2CCCN2CCCC2=O)cc(OC)c1 [Compound 133]	–	7.30	> 10000	–	6.39	–	> 10000	~7.58	–	> 10000	–	6.73	1.58	1	1.23	0.724	5.89	–	–	–
COc1cc(OC)c(F)c(N(CCS(C)(=O)=O)c2ccc3ncc(-c4cnn(C)c4)nc3n2)c1 [Compound 226]	–	7.32	> 10000	–	5.92	–	> 10000	~7.54	–	> 10000	–	6.60	3.02	0.912	2.19	1.12	26.3	–	–	–
COc1cc(OC)cc(N(Cc2ncc[nH]2)c2ccc3ncc(-c4cnn(C)c4)nc3n2)c1 [24-phosphate salt]	1.02	8.42	–	0.708	6.05	1.23	–	7.74	0.832	–	14.5	7.47	–	–	–	–	–	<5	<5	<5
COCC(O)CN(c1ccc2ncc(-c3cnn(C)c3)nc2n1)c1cc(OC)cc(OC)c1F (single isomer, unassigned) [Compound 59]	2.19	7.60	–	~1.78	5.73	1.82	–	7.71	1.23	–	25.1	7.19	–	–	–	–	–	<5	<5	<5
COc1ccc(Cl)c(N(CC2CCC(=O)N2)c2ccc3ncc(-c4cnn(C)c4)nc3n2)c1Cl (single isomer, unassigned) [Compound 91]	–	5.13	–	–	<5	–	–	5.17	–	–	–	<5	> 1000	219	145	138	741	<5	<5	<5
COc1cc(/N=c2\ccc3ncc(-c4cnn(C)c4)nc3n2CC2CCC(=O)N2)c(F)c(OC)c1 (stereo not drawn) [Compound 53]	3.31	7.47	–	1.2	5.99	1.62	–	7.54	1.1	–	12.3	6.85	–	–	–	–	–	<5	<5	<5
COc1cc(OC)c(F)c(N(CC(O)COC(C)C)c2ccc3ncc(-c4cnn(C)c4)nc3n2)c1 (single isomer, unassigned) [Compound 78]	2.51	7.59	–	2.4	6.13	2.75	–	7.70	2.34	–	15.1	7.03	–	–	–	–	–	<5	<5	<5
COc1cc(OC)c(F)c(N(CC2CCC(=O)N2C)c2ccc3ncc(-c4cnn(C)c4)nc3n2)c1 (stereo not drawn) [Compound 161]	–	6.26	–	–	<5	–	–	6.08	–	–	–	5.78	37.2	20	10	6.92	126	<5	<5	<5
